Source: patent publication US20230406865A1, “CRYSTAL FORM OF FREE BASE OF INHIBITOR CONTAINING BICYCLIC RING DERIVATIVE AND PREPARATION METHOD AND APPLICATION OF CRYSTAL FORM” (SHANGHAI HANSOH BIOMEDICAL CO., LTD., priority 2020, published 2023)

What was measured:
KDR kinase = target: T1, KDR kinase (Homo sapiens, UniProt P35968); experiment: HTRF kinase activity inhibition, KDR; format: biochemical; conditions: for IC50: HTRF, ATP at Km; for Ratio (KDR/RET): KDR IC50 / RET IC50
T1 construct: purchased Carna 08-191
Summary of the method: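 Inhibition of KDR kinase activity measured by homogeneous time-resolved fluorescence with a tyrosine-kinase KinEASE substrate kit and ATP.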

[1] = Balb/C mouse pharmacokinetics, oral 5 mg/kg; format: in vivo, Balb/C mice; conditions: male, p.o. 5 mg/kg, plasma; for MRT: read-out: Average residence time MRT; for Cmax: read-out: Blood concentration Cmax; for AUC(0-t): read-out: Curve area AUC0-t; for AUC(0-inf): read-out: Curve area AUC0-∞; for half-life: read-out: Half-life t1/2 (converted); for Tmax: read-out: Peak time tmax
Summary of the method: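 Male Balb/C mice (6 per compound) were fasted overnight and dosed in 0.5% CMC-Na (1% Tween80) solution or suspension. EDTA-K2 plasma was sampled at 0, 0.5, 1, 2, 4, 6, 8 and 24 h. Compound levels were measured by LC/MS/MS after acetonitrile precipitation, and PK parameters were derived from the plasma profiles.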

Ba/F3 KIF5B-RET cells = target: T2, Ba/F3 KIF5B-RET cells (Homo sapiens, UniProt P07949); experiment: Inhibition of proliferation of Ba/F3 KIF5B-RET cells (CellTiter-Glo); format: cell-based; conditions: 72 to 144 hours
T2 construct: fused on or other part: P33176 (Kinesin-1 heavy chain)
Summary of the method: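 Cells plated overnight, then exposed to compound dilutions in DMSO/medium at 37° C, 5% CO2 for 72 to 144 hours. Viability read by CellTiter-Glo luminescence; IC50 from inhibition rates fitted by nonlinear regression.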

RET M918T = target: T3, RET M918T (Homo sapiens, UniProt P07949, M918T); experiment: HTRF kinase activity inhibition, RET M918T; format: biochemical; conditions: ATP at Km
T3 construct: purchased Carna 08-508
Source text: 2.2 Experimental Reagents: • RET enzyme was purchased from Carna Company, and the article number was 08-159; • RET M918T enzyme was purchased from Carna Company, and the article number was 08-508; • KIF5B-RET was purchased from SignalChem Company, the article number was R02-19FG-05; • CCDC6-RET was purchased from SignalChem Company, the article number was R02-19BG-05; • RET V804M enzyme was purchased from Thermofisher Company, and the article number was PV6223; • RET V804L enzyme was purchased from Thermofisher Company, and the article number was PV4397; • HTRF KinEASE-TK kit was purchased from Cisbio Company, and the article number was 62TK0PEC; • ATP was purchased from Thermofisher Company, and the article number was PV3227; • 384-well plate was purchased from PerkinElmer Company, and the article number was 6007290.
In this experiment, a homogeneous time-resolved fluorescence (HTRF) method was used for the detection of compounds on RET kinase activity.

RET kinase = target: T4, RET kinase (Homo sapiens, UniProt P07949); experiment: HTRF kinase activity inhibition, RET wild-type; format: biochemical; conditions: ATP at Km
T4 construct: purchased Carna 08-159
Summary of the method: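 HTRF (KinEASE-TK) kinase assay with recombinant RET wild-type, RET V804M, RET V804L and KIF5B-RET enzymes plus ATP.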

[2] = system: subcutaneous transplanted tumor of Ba/F3 KIF5B-RET cells; experiment: Tumor suppression on Ba/F3 KIF5B-RET transplanted tumor model; format: in vivo, BALB/c nude mice
Method: Ba/F3 KIF5B-RET cells were removed from the cell bank, resuscitated and added to RPMI1640 medium (RPMI1640+10% FBS+1% Glu+1% P/S), then cultured in a CO2 incubator (incubator temperature was 37° C., CO2 concentration was 5%), and when the cell number expanded to the required number for in vivo inoculation, Ba/F3 KIF5B-RET cells were collected. The cells were counted with an automatic cell counter, resuspended with PBS according to the count results, made into a cell suspension (density was 2×10^7/mL), and placed in an ice box for use.
Female BALB/c nude mice aged 6-8 weeks were used, weighing about 18-22 g. Mice were reared in SPF animal room, and were reared in a single cage with 5 mice in each cage. All cages, bedding and water were sterilized at high temperature before use, and all animals were allowed to eat and drink freely. Nude mice were labeled with disposable universal ear tags for mice and rats before the start of the experiment, and the skin of the inoculation site was disinfected with 75% medical alcohol before inoculation. 0.1 mL (containing 2*10^6 cells) of Ba/F3 KIF5B-RET cells were inoculated subcutaneously on the right back of each mouse. Group administration was initiated when the tumor volume reached 60-200 mm^3, with 5 mice in each group. Each test compound was administered orally twice a day for 14 days. The tumor volume and the weight of mice were measured twice a week, and the tumor TGI (%) was calculated.
The tumor volume (mm^3) was calculated as V=0.5*D*d*d, where D and d were the long and short diameters of the tumor, respectively.
When there was no tumor regression, TGI (%)=[(1-(mean tumor volume at the end of the administration in a treatment group−mean tumor volume at the start of administration in the treatment group))/(mean tumor volume at the end of treatment in the solvent control group−mean tumor volume at the start of treatment in the solvent control group)]×100%.
When there was tumor regression, TGI (%)=[1-(mean tumor volume at the end of administration in a treatment group−mean tumor volume at the beginning of administration in the treatment group)/mean tumor volume at the beginning of administration in the treatment group]×100%.

[3] = system: TT cells (MTC, RET C634W); experiment: Inhibition of proliferation of TT cells (CellTiter-Glo, 72 h); format: cell-based; conditions: Homo sapiens
Summary of the method: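 TT cells seeded overnight, then exposed to compound dilutions for 72 h at 37 °C, 5% CO2, with a solvent control. Viability read by CellTiter-Glo luminescence; IC50 from nonlinear regression of inhibition rate versus concentration.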

T1 sequence (P35968 20-1356): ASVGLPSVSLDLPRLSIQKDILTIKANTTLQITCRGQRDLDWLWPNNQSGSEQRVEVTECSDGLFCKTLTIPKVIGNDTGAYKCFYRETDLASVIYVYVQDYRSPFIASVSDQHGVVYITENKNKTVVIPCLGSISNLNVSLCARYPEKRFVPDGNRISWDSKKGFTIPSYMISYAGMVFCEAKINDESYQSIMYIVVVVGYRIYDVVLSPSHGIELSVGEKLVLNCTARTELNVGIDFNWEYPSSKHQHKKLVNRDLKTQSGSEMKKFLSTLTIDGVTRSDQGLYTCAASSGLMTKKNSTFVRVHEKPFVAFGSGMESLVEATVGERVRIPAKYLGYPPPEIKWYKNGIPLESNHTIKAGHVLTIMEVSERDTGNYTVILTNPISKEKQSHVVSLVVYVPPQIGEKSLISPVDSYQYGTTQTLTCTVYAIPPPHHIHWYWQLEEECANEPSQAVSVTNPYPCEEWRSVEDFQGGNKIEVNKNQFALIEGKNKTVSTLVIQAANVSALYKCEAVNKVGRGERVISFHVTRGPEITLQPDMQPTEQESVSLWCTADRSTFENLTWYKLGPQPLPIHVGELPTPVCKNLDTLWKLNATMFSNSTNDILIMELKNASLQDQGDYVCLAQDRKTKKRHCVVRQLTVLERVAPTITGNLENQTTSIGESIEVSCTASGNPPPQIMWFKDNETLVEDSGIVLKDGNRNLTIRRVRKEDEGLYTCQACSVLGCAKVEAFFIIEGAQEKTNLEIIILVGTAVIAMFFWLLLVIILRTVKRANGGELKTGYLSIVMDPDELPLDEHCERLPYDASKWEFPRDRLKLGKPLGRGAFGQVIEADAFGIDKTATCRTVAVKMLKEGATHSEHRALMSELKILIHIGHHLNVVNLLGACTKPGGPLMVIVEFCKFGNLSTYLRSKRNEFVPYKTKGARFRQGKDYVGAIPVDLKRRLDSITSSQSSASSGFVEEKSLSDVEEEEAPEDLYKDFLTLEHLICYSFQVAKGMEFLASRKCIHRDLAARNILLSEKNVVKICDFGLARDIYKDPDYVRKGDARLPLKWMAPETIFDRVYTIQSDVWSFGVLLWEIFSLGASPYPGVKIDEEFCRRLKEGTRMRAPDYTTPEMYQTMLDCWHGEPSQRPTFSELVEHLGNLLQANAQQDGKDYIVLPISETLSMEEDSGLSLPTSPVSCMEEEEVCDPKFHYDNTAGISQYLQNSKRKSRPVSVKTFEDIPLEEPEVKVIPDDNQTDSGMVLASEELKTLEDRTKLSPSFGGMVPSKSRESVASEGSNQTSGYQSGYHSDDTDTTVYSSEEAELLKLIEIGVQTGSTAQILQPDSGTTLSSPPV
T3 sequence (P07949 29-1114 M918T): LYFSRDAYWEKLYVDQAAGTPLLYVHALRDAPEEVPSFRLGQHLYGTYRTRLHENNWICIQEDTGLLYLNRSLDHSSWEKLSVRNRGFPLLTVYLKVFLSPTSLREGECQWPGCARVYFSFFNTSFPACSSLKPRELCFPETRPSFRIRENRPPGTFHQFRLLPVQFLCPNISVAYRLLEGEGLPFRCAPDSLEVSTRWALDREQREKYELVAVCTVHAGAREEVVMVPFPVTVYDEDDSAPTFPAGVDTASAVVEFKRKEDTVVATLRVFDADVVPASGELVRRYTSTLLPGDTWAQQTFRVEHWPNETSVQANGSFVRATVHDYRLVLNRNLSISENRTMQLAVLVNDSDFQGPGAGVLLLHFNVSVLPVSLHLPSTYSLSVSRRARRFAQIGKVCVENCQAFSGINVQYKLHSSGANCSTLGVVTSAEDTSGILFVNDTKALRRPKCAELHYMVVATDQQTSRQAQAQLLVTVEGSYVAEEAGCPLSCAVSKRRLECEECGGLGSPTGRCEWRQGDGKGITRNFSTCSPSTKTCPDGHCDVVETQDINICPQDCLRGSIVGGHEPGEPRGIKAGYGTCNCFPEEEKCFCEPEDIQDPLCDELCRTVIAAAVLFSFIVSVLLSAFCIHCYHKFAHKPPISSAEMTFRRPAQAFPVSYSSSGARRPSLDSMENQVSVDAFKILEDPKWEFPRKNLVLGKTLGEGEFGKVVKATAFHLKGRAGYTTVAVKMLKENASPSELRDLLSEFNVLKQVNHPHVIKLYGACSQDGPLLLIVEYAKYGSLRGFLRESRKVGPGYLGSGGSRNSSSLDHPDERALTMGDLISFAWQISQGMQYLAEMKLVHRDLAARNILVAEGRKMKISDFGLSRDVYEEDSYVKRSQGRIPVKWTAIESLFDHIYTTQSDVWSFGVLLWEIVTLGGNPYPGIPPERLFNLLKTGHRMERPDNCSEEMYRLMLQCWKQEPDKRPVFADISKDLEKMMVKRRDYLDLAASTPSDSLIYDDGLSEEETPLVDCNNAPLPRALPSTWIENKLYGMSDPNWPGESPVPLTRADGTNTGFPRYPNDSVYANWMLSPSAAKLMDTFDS
T2 sequence (P07949 whole entry, change not shown, the tested form may be a part): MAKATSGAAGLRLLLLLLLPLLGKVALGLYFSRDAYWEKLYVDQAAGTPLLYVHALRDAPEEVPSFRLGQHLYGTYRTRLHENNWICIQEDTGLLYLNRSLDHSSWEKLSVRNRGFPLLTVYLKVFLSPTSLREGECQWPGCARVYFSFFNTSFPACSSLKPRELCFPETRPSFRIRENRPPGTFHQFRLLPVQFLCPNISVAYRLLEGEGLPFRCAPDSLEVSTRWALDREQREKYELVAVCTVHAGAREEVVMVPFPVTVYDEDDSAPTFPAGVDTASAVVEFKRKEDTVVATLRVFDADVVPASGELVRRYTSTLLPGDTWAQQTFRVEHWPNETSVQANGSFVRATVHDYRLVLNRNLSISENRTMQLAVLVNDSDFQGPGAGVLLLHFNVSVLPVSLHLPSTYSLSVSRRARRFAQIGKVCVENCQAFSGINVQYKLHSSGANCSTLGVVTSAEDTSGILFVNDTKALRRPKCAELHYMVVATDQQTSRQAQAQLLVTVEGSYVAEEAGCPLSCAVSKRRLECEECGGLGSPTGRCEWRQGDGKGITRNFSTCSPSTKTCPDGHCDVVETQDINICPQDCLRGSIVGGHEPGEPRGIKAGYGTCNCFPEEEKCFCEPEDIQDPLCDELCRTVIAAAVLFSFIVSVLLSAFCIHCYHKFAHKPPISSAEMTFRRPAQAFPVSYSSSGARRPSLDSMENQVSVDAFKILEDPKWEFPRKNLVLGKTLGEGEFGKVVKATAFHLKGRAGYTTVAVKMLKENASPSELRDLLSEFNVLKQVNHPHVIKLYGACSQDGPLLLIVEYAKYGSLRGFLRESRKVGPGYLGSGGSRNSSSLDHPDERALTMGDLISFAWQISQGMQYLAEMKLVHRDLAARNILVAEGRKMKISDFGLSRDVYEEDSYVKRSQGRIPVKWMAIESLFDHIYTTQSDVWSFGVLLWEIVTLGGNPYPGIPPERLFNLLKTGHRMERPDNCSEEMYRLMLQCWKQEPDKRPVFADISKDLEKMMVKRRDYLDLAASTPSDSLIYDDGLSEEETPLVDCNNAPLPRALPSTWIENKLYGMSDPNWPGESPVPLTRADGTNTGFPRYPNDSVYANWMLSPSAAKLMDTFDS
T4 sequence (P07949 29-1114): as the sequence (P07949 29-1114 M918T) above, with T890M counted along it

| SMILES | IC50 (KDR kinase) | Ratio (KDR/RET) (KDR kinase) | MRT [1] | Cmax [1] | AUC(0-t) [1] | AUC(0-inf) [1] | half-life [1] | Tmax [1] | IC50 (Ba/F3 KIF5B-RET cells) | IC50 (RET M918T) | IC50 (RET kinase) | Tumor volume (Mean ± SD) Day 0 ([2]; 10 mg/kg oral twice a day) | TGI (%) Day 14 ([2]; 10 mg/kg oral twice a day) | Tumor volume (Mean ± SD) Day 14 ([2]; 10 mg/kg oral twice a day) | IC50 [3] | Tumor volume (Mean ± SD) Day 0 ([2]; 30 mg/kg oral twice a day) | TGI (%) Day 14 ([2]; 30 mg/kg oral twice a day) | Tumor volume (Mean ± SD) Day 14 ([2]; 30 mg/kg oral twice a day) |
| --- | --- | --- | --- | --- | --- | --- | --- | --- | --- | --- | --- | --- | --- | --- | --- | --- | --- | --- |
| COc1ccc(CN2C3CC2CN(c2ccc(-c4cc(N5CC(C(C)(C)O)C5)cn5ncc(C#N)c45)cn2)C3)cn1 [Embodiment 7, 6-(3-(2-Hydroxypropan-2-yl)azetidin-1-yl)-4-(6-(6-((6-methoxypyridin-3-yl)methyl)-3,6-diazabicyclo[3.1.1]heptan-3-yl)pyridin-3-yl)pyrazolo[1,5-a]pyridine-3-carbonitrile] | 11 nM | 16 | 3.76 h | 3280 ng/mL | 13800 ng·h/mL | 13800 ng·h/mL | 131 min | 30 min | 13 nM | 1.06 nM | 0.69 nM | 100.80 ± 31.28 mm^3 | 90.82% | 232.46 ± 133.65 mm^3 | 11 nM |  |  |  |
| COc1ccc(CN2C3CC2CN(c2ccc(-c4cc(C#CC(C)(C)O)cn5ncc(C#N)c45)cn2)C3)cn1 [Embodiment 8, 6-(3-Hydroxy-3-methylbut-1-yn-1-yl)-4-(6-(6-((6-methoxypyridin-3-yl)methyl)-3,6-diazabicyclo[3.1.1]heptan-3-yl)pyridin-3-yl)pyrazolo[1,5-a]pyridine-3-carbonitrile] | 16 nM | 34 | 4.91 h | 3710 ng/mL | 21400 ng·h/mL | 21500 ng·h/mL | 202 min | 30 min | 12 nM | 0.67 nM | 0.48 nM |  |  |  | 17 nM |  |  |  |
| CC1(NC(=O)c2ncccc2Cl)CCN(c2ccc(-c3cc(OCC4(C#N)CC4)cn4ncc(C#N)c34)cn2)CC1 [Embodiment 92, 3-Chloro-N-(1-(5-(3-cyano-6-((1-cyanocyclopropyl)methoxy)pyrazolo[1,5-a]pyridin-4-yl)pyridin-2-yl)-4-methylpiperidin-4-yl)picolinamide] | 185 nM | 218 | 2.85 h | 9340 ng/mL | 24500 ng·h/mL | 24500 ng·h/mL | 102 min | 30 min | 32.1 nM |  | 0.85 nM |  |  |  | 27.4 nM | 133.41 ± 18.82 mm^3 | 126.35% | 98.26 ± 33.71 mm^3 |
| CC(C)(O)C#Cc1cc(-c2ccc(N3CCC(C)(NC(=O)c4ncccc4Cl)CC3)nc2)c2c(C#N)cnn2c1 [Embodiment 85, 3-Chloro-N-(1-(5-(3-cyano-6-(3-hydroxy-3-methylbut-1-yn-1-yl)pyrazolo[1,5-a]pyridin-4-yl)pyridin-2-yl)-4-methylpiperidin-4-yl)picolinamide] | 46 nM | 122 |  |  |  |  |  |  |  | 0.79 nM | 0.38 nM |  |  |  | 9.44 nM |  |  |  |
| C#C[C@](C)(O)COc1cc(-c2ccc(N3CC4CC(C3)N4Cc3cnc(OC)c(F)c3)nc2)c2c(C#N)cnn2c1 [Embodiment 65, 4-(6-(6-((5-Fluoro-6-methoxypyridin-3-yl)methyl)-3,6-diazabicyclo[3.1.1]heptan-3-yl)pyridin-3-yl)-6-(((S)-2-hydroxy-2-methylbut-3-yn-1-yl)oxy)pyrazolo[1,5-a]pyridine-3-carbonitrile] | 14.5 nM | 44 | 5.24 h | 2400 ng/mL | 20200 ng·h/mL | 20300 ng·h/mL | 183 min | 120 min | 7.03 nM |  | 0.33 nM | 100.40 ± 29.77 mm^3 | 87.71% | 276.69 ± 106.21 mm^3 | 12.7 nM |  |  |  |
| C#CC(C)(O)COc1cc(-c2ccc(N3CC4CC(C3)N4Cc3ccc(OC)nc3)nc2)c2c(C#N)cnn2c1 (stereo not shown) [Embodiment 62, 6-((2-Hydroxy-2-methylbut-3-yn-1-yl)oxy)-4-(6-(6-((6-methoxypyridin-3-yl)methyl)-3,6-diazabicyclo[3.1.1]heptan-3-yl)pyridin-3-yl)pyrazolo[1,5-a]pyridine-3-carbonitrile] | 35.2 nM | 73 | 4.07 h | 2820 ng/mL | 13800 ng·h/mL | 13800 ng·h/mL | 144 min | 30 min |  |  | 0.48 nM | 100.24 ± 27.85 mm^3 | 89.74% | 247.52 ± 85.65 mm^3 |  |  |  |  |
| COc1ncc(CN2C3CC2CN(c2ccc(-c4cc(N5CC(C(C)(C)O)C5)cn5ncc(C#N)c45)cn2)C3)cc1F [Embodiment 31, 4-(6-(6-((5-Fluoro-6-methoxypyridin-3-yl)methyl)-3,6-diazabicyclo[3.1.1]heptan-3-yl)pyridin-3-yl)-6-(3-(2-hydroxypropan-2-yl)azetidin-1-yl)pyrazolo[1,5-a]pyridine-3-carbonitrile] | 23 nM | 30 | 4.71 h | 3120 ng/mL | 18900 ng·h/mL | 18900 ng·h/mL | 160 min | 30 min |  | 0.47 nM | 0.75 nM |  |  |  | 6.59 nM |  |  |  |
| COc1ccc(CN2C3CC2CN(c2ccc(-c4cc(C#CC(C)(C)N)cn5ncc(C#N)c45)cn2)C3)cn1 [Embodiment 17, 6-(3-Amino-3-methylbut-1-yn-1-yl)-4-(6-(6-((6-methoxypyridin-3-yl)methyl)-3,6-diazabicyclo[3.1.1]heptan-3-yl)pyridin-3-yl)pyrazolo[1,5-a]pyridine-3-carbonitrile] | 8.2 nM | 21 |  |  |  |  |  |  |  | 0.38 nM | 0.39 nM |  |  |  | 13.1 nM |  |  |  |
